Measured values from BindingDB's records for doi:10.7270/Q2959KQ0 (n/a, 1993).

Target: T1, 5-hydroxytryptamine receptor 3A/3B (Rattus norvegicus, UniProt P35563+Q9JJ16)
T1 sequence (P35563 whole entry): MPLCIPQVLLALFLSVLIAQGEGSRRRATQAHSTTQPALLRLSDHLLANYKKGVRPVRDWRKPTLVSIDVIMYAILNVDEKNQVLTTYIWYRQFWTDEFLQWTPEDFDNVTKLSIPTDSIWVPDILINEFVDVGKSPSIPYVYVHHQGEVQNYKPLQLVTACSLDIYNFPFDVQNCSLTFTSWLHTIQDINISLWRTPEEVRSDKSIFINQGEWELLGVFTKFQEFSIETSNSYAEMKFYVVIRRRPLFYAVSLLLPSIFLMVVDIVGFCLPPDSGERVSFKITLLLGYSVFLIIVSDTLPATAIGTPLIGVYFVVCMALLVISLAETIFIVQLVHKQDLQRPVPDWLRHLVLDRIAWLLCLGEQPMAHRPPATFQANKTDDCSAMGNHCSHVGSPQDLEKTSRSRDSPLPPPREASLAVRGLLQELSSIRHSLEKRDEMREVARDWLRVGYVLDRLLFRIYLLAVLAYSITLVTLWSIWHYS
T1 sequence (Q9JJ16 whole entry): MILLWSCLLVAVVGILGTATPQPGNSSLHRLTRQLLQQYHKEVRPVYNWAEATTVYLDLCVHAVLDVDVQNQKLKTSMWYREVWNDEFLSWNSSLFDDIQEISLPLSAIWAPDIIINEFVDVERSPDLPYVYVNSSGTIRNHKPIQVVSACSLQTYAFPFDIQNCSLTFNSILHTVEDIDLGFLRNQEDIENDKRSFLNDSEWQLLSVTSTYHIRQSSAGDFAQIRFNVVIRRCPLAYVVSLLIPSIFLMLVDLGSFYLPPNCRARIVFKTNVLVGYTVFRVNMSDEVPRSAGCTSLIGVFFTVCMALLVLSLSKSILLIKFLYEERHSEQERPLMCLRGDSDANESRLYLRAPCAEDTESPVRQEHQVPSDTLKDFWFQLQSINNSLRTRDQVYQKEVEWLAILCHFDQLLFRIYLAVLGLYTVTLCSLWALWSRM
Experiment: Binding affinity to 5-hydroxytryptamine 3 receptor was determined in rat cerebro cortical membranes using [3H]quipazine.

For `COc1cc(N)c(Cl)cc1C(=O)N[C@H]1CN2CCC1CC2` [4-Amino-N-(R)-1-aza-bicyclo[2.2.2]oct-3-yl-5-chloro-2-methoxy-benzamide], which Ki is on record?
Its Ki is 3.2 nM.
